Assays:
[1] = system: LoVo (human colon cancer) cells; assay: Tumor-growth inhibition in vivo, LoVo xenograft in BALB/c nu/nu mice; conditions: for tumor-growth inhibition: LoVo; for tumor inhibition rate: day 15, after 14 days' treatment
From the text: (§1) Suspensions of LoVo (5×10^6 cells/mouse), HT-29 (5 x 10^6 cells/mouse) and A431 (8×10^6 cells/mouse) cells were inoculated s.c. into the right flank of the mice. A piece of MAXF401 was transplanted s.c. into the right flank of female mice. A suspension of KPL-4 cells (1×10^7 cells/mouse) was orthotopically transplanted into the second mammary fat pad of female mice. Several weeks after tumor inoculation, mice were selected and randomized into control and treatment groups. Experiments were started when tumor volumes reached approximately 0.1-0.3 cm^3. […] The tumor volumes were estimated using the equation V=ab^2/2, where a and b are tumor length and width, respectively. Gastrointestinal (GI) toxicity was estimated by observing the feces and by detecting fecal occult blood using a test kit (Shionogi Pharma Co., Osaka, Japan). Peripheral blood leukocyte counts were performed to evaluate bone marrow toxicity.

[2] = system: KPL-4 (human inflammatory breast cancer) cells; assay: Tumor-growth inhibition in vivo, KPL-4 orthotopic xenograft in BALB/c nu/nu mice
From the text: as §1

[3] = Tolerability (body weight, deaths, MTD) in tumor-bearing mice; type: in vivo, BALB/c nu/nu mice; conditions: for lethality: erlotinib 250 mg/kg/day; for toxic deaths: erlotinib 50-125 mg/kg/day for 2 weeks
From the text: Male and female, 4-6-weeks old BALB/c nu/nu mice were obtained from Nippon Clea (Tokyo, Japan). All animals were allowed to acclimatize and recover from shipping-related stress for 1 week prior to the study. The health of the mice was monitored daily by observation.

[4] = system: MAXF401 (human breast cancer) cells; assay: Tumor-growth inhibition in vivo, MAXF401 xenograft in BALB/c nu/nu mice; conditions: erlotinib 100 mg/kg/day orally once daily for two weeks, day 15
From the text: as §1

[5] = system: A-431 (human vulval epidermal cancer) cells; assay: Tumor-growth inhibition in vivo, A-431 xenograft in BALB/c nu/nu mice; conditions: erlotinib 100 mg/kg/day (80% of MTD) orally once daily for 14 days
From the text: as §1

[6] = system: HT-29 (human colon cancer) cells; assay: Tumor-growth inhibition in vivo, HT-29 xenograft in BALB/c nu/nu mice; conditions: erlotinib 100 mg/kg/day orally once daily for two weeks, day 15
From the text: as §1

[7] = erlotinib 100 mg/kg/day (80% of MTD) orally once daily for 14 days, day 15
[8] = erlotinib 100 mg/kg/day (80% of MTD) orally once daily for 14 days, day 15, listed as erlotinib

Structure (SMILES) | tumor-growth inhibition ([1]; capecitabine at the MTD, 539 mg/kg) [%] | tumor-growth inhibition ([2]; capecitabine 90 mg/kg (67% of MTD for this model) orally once daily for 14 days, day 15) [%] | MTD at 2 weeks ([3]; BALB/c nu/nu, mouse, in vivo, oral, read-out: maximum tolerated dose (MTD)) [mg/kg/day] | lethality ([3]; mice bearing A431 tumors (data not shown)) | lethality ([3]; mice bearing LoVo tumors (data not shown)) | toxic deaths ([3]; mice bearing LoVo tumors) | toxic deaths ([3]; mice bearing LoVo tumors, listed as erlotinib) | mean body weight maintained ([3]; mice bearing LoVo tumors, erlotinib 50-125 mg/kg/day, all groups) [%] | tumor-growth inhibition [4] [%] | tumor-growth inhibition ([5]; day 15) [%] | tumor-growth inhibition ([5]; day 15, listed as erlotinib) [%] | antitumor activity ([1]; LoVo dose-response study, erlotinib 50 mg/kg orally once daily for 2 weeks) | tumor inhibition rate ([1]; LoVo dose-response study, erlotinib 100 mg/kg orally once daily) [%] | tumor inhibition rate ([1]; LoVo dose-response study, erlotinib 125 mg/kg orally once daily) [%] | tumor-growth inhibition [1, 7] [%] | tumor-growth inhibition [1, 8] [%] | tumor-growth inhibition [6] [%] | tumor-growth inhibition [2, 7] [%] | tumor-growth inhibition [2, 8] [%] | inhibition of tumor growth ([2]; single-agent erlotinib 75 mg/kg (data not shown)) [%]
CCCCCOC(=O)Nc1nc(=O)n([C@@H]2O[C@H](C)[C@@H](O)[C@H]2O)cc1F [Capecitabine, capecitabine] | 56 | 36 | – | – | – | – | – | – | – | – | – | – | – | – | – | – | – | – | – | –
C#Cc1cccc(Nc2ncnc3cc(OCCOC)c(OCCOC)cc23)c1 [Erlotinib, [6,7-bis(2-methoxyethoxy)-4-quinazolin-4-yl]-(3-ethynylphenyl)amine] | – | – | 125 | lethal | lethal | no deaths recorded | No toxic deaths were observed | ≥ 80 | 20 | 85 | 85 | did not show significant antitumor activity | 62 | 85 | 74 | 74 | 46 | 71 | 71 | 45

From patent US20060178387A1, “Combined treatment with capecitabine and an epidermal growth factor receptor kinase inhibitor” (priority 2005, published 2006)
